Laboratory results as given in US7320972B2, “4-Biarylyl-1-phenylazetidin-2-ones” (Microbia, Inc., priority 2003, dated 2008).

Tested on: cholesterol absorption (serum 3H-cholesterol)
Experiment: In Vivo Assay of Hypolipidemic Agents using the Rat Cholesterol Absorption Model
Set-up: species or system Sprague-Dawley rats
Conditions: peroral; for % inhibition at 10 mg/kg: 10 mg/kg (footnote 1); for % inhibition at 10 mg/kg / % inhibition at 5 mg/kg: serum 3H-cholesterol vs vehicle control; for inhibition in vivo at 1 mg/kg: po, serum 3H-cholesterol 3 h after cholesterol dose, vs vehicle control; for % inhibition at 5 mg/kg: 5 mg/kg (footnote 3)
Experimental: In Vivo Assay of Hypolipidemic Agents using the Rat Cholesterol Absorption Model. This model is based on models described by Burnett et al (2002), Bioorg. Med. Chem. Lett. 2002 Feb. 11;12(3):315-8 and J. Lipid Res. 1999 October;40(10):1747-57. Female Sprague-Dawley rats weighing 150-250 g are separated into groups of […] and fasted overnight. The animals (4-6/group) are dosed perorally with 300 μL test compounds in olive oil or suitable vehicle. Thirty minutes later, 3-5 microCuries ^3H-cholesterol per rat are delivered perorally in 300 μL olive oil. After three hours, 200 μL serum is collected, vortexed with scintillation fluid, and measured for radioactivity in a scintillation counter. Percent inhibition is defined as 100*(1−Ctest/Cctrl), where Ctest and Cctl refer to ^3H levels in serum for the test compound and for the vehicle only control, respectively. Percent inhibition values are reported for a fixed dose. The ED50 is the dose at which the half-maximal effect on serum ^3H levels is observed for a given test compound.
Representative compounds of the invention were tested in the Rat Cholesterol Absorption model above.

Compound	inhibition in vivo at 1 mg/kg [%]	also measured
O=C1[C@H](CC[C@H](O)c2ccc(F)cc2)[C@@H](c2ccc(-c3ccccc3)cc2)N1c1ccc(F)cc1 [Example 3, (3R,4S)-4-Biphenyl-4-yl-1-(4-fluorophenyl)-3-[(3S)-3-(4-fluorophenyl)-3-hydroxypropyl]azetidin-2-one]	–	% inhibition at 10 mg/kg: 15^1%
COc1cccc(-c2ccc([C@@H]3[C@@H](CC[C@H](O)c4ccc(F)cc4)C(=O)N3c3ccc(F)cc3)cc2)c1 [Example 12, (3R,4S)-1-(4-fluorophenyl)-3-[(3S)-3-(4-fluorophenyl)-3-hydroxypropyl]-4-(3′-methoxybiphenyl-4-yl)azetidin-2-one]	70	–
O=Cc1cccc(-c2ccc([C@@H]3[C@@H](CC[C@H](O)c4ccc(F)cc4)C(=O)N3c3ccc(F)cc3)cc2)c1 [Example 13, 4′-{(2S,3R)-1-(4-fluorophenyl)-3-[(3S)-3-(4-fluorophenyl)-3-hydroxypropyl]-4-oxoazetidin-2-yl}biphenyl-3-carbaldehyde]	70	–
N#Cc1cccc(-c2ccc([C@@H]3[C@@H](CC[C@H](O)c4ccc(F)cc4)C(=O)N3c3ccc(F)cc3)cc2)c1 [Example 14, 4′-{(2S,3R)-1-(4-fluorophenyl)-3-[(3S)-3-(4-fluorophenyl)-3-hydroxypropyl]-4-oxoazetidin-2-yl}biphenyl-3-carbonitrile]	–	% inhibition at 5 mg/kg: 32^3%
CN(C)S(=O)(=O)c1ccc(-c2ccc([C@@H]3[C@@H](CC[C@H](O)c4ccc(F)cc4)C(=O)N3c3ccc(F)cc3)cc2)cc1 [Example 15, 4′-{(2S,3R)-1-(4-fluorophenyl)-3-[(3S)-3-(4-fluorophenyl)-3-hydroxypropyl]-4-oxoazetidin-2-yl}biphenyl-N,N-dimethylbiphenyl-4-sulfonamide]	8	–
O=C1[C@H](CC[C@H](O)c2ccc(F)cc2)[C@@H](c2ccc(-c3cccc(CO)c3)cc2)N1c1ccc(F)cc1 [Example 16, (3R,4S)-1-(4-Fluorophenyl)-3-[(3S)-3-(4-fluorophenyl)-3-hydroxypropyl]-4-(3′-(hydroxymethyl)biphenyl-4-yl)azetidin-2-one]	72	–
CN(C)c1ccc(-c2ccc([C@@H]3[C@@H](CC[C@H](O)c4ccc(F)cc4)C(=O)N3c3ccc(F)cc3)cc2)cc1 [Example 17, (3R,4S)-4-[4′(dimethylamino)biphenyl-4-yl]-1-(4-fluorophenyl)-3-[(3S)-3-(4-fluorophenyl)-3-hydroxypropyl]azetidin-2-one]	43	–
O=C1[C@H](CC[C@H](O)c2ccc(F)cc2)[C@@H](c2ccc(-c3ccc(CO)cc3)cc2)N1c1ccc(F)cc1 [Example 18]	48	–
O=C1[C@H](CC[C@H](O)c2ccc(F)cc2)[C@@H](c2ccc(-c3cc(O)ccc3Br)cc2)N1c1ccc(F)cc1 [Example 19, (3R,4S)-4-(2′-bromo-5′-hydroxybiphenyl-4-yl)-1-(4-fluorophenyl)-3-[(3S)-3-(4-fluorophenyl)-3-hydroxypropyl]azetidin-2-one]	66	–
O=C(O)[C@@H]1O[C@H](Oc2cccc(-c3ccc([C@@H]4[C@@H](CC[C@H](O)c5ccc(F)cc5)C(=O)N4c4ccc(F)cc4)cc3)c2)[C@@H](O)[C@H](O)[C@H]1O [Example 20, 4′-{(2S,3R)-1-(4-fluorophenyl)-3-[(3S)-3-(4-fluorophenyl)-3-hydroxypropyl]-4-oxoazetidin-2-yl}biphenyl-3-yl β-L-glucopyranosiduronic Acid]	59	–
O=C(O)c1cccc(-c2ccc([C@@H]3[C@@H](CC[C@H](O)c4ccc(F)cc4)C(=O)N3c3ccc(F)cc3)cc2)c1 [Example 21, 4′-{(2S,3R)-1-(4-fluorophenyl)-3-[(3S)-3-(4-fluorophenyl)-3-hydroxypropyl]-4-oxoazetidin-2-yl]biphenyl-3-carboxylic acid]	68	–
O=C(O)c1ccc(-c2ccc([C@@H]3[C@@H](CC[C@H](O)c4ccc(F)cc4)C(=O)N3c3ccc(F)cc3)cc2)cc1 [Example 22, 4′-{(2S,3R)-1-(4-fluorophenyl)3-[(3S)-3-(4-fluorophenyl)-3-hydroxypropyl]-4-oxoazetidin-2-yl]biphenyl-4-carboxylic acid]	52	–
O=C1[C@H](CC[C@H](O)c2ccc(F)cc2)[C@@H](c2ccc(-c3cccc([N+](=O)[O-])c3)cc2)N1c1ccc(F)cc1 [Example 23, (3R,4S)-1-(4-fluorophenyl)-3-[(3S)-3-(4-fluorophenyl)-3-hydroxypropyl]-4-(3′-nitrobiphenyl-4-yl)azetidin-2-one]	–	% inhibition at 10 mg/kg: 54^1%
CC(=O)Nc1cccc(-c2ccc([C@@H]3[C@@H](CC[C@H](O)c4ccc(F)cc4)C(=O)N3c3ccc(F)cc3)cc2)c1 [Example 26, N-(4′-{(2S,3R)-1-(4-fluorophenyl)-3-[(3S)-3-(4-fluorophenyl)-3-hydroxypropyl]-4-oxoazetidin-2-yl}biphenyl-3-yl)acetamide]	–	% inhibition at 10 mg/kg: 76^1%
Nc1ccc(-c2ccc([C@@H]3[C@@H](CC[C@H](O)c4ccc(F)cc4)C(=O)N3c3ccc(F)cc3)cc2)cc1 [Example 28, (3R,4S)-4-(4′-aminobiphenyl-4-yl)-1-(4-fluorophenyl)-3-[(3S)-3-(4-fluorophenyl)-3-hydroxypropyl]azetidin-2-one]	56	–
O=C1[C@H](CC[C@H](O)c2ccc(F)cc2)[C@@H](c2ccc(-c3cccc(O)c3)cc2O)N1c1ccccc1 [Example 42, (3R,4S)-4-(3,3′-Dihydroxybiphenyl-4-yl)-3-[(3S)-3-(4-fluorophenyl)-3-hydroxypropyl]-1-phenylazetidin-2-one]	87	–
O=C1[C@H](CC[C@H](O)c2ccc(F)cc2)[C@@H](c2cccc(-c3cccc(O)c3)c2)N1c1ccc(F)cc1 [Example 44, (3R,4S)-1-(4-fluorophenyl)-3-[(3S)-3-(4-fluorophenyl)-3-hydroxypropyl]-4-(3′-hydroxybiphenyl-3-yl)azetidin-2-one]	24	–
O=C1[C@H](CC[C@H](O)c2ccc(F)cc2)[C@@H](c2ccc(Br)cc2)N1c1ccccc1 [Example 46, (3R,4S)-4-(4-Bromophenyl)-3-[(3S)-3-(4-fluorophenyl)-3-hydroxypropyl]-1-phenylazetidin-2-one]	30	–
O=C1[C@H](CC[C@H](O)c2ccc(F)cc2)[C@@H](c2ccc(-c3cccc(O)c3)cn2)N1c1ccccc1 [Example 49, (3R,4S)-3-[(3S)-3-(4-Fluorophenyl)-3-hydroxypropyl]-4-[5-(3-hydroxyphenyl)pyridin-2-yl]-1-phenylazetidin-2-one]	30	–
O=C1[C@H](CC[C@H](O)c2ccc(F)cc2)[C@@H](c2ccc(-c3cccc(O)c3)s2)N1c1ccccc1 [Example 50, (3R,4S)-3-[(3S)-3-(4-Fluorophenyl)-3-hydroxypropyl]-4-[5-(3-hydroxyphenyl)-2-thienyl]-1-phenylazetidin-2-one]	27	–
O=C1[C@H](CC[C@H](O)c2ccc(F)cc2)[C@@H](c2ccc(-c3ccc(O)cc3)s2)N1c1ccccc1 [Example 51, (3R,4S)-3-[(3S)-3-(4-Fluorophenyl)-3-hydroxypropyl]-4-[5-(4-hydroxyphenyl)-2-thienyl]-1-phenylazetidin-2-one]	39	–
O=C1[C@H](CCC(O)c2ccc(F)cc2)[C@@H](c2ccc(-c3cccc(S(=O)(=O)O)c3)cc2O)N1c1ccccc1 (stereo partly drawn) [Example 53, Sodium 4′-{(2S,3R)-3-[(3S/R)-3-(4-fluorophenyl)-3-hydroxypropyl]-4-oxo-1-phenylazetidin-2-yl}-3′-hydroxybiphenyl-3-sulfonate]	78	–
O=C1[C@H](CC[C@H](O)c2ccc(F)cc2)[C@@H](c2ccc(-c3cccc(P(=O)(O)O)c3)cc2)N1c1ccccc1 [Example 56, (4′-{(2S,3R)-3-[(3S)-3-(4-Fluorophenyl)-3-hydroxypropyl]-4-oxo-1-phenylazetidin-2-yl}biphenyl-3-yl)phosphonic acid]	59	–
O=C1[C@H](CC[C@H](O)c2ccc(F)cc2)[C@@H](c2ccc(-c3cccc(O)c3)cc2)N1c1ccccc1 [Example 57, (3R,4S)-3-[(3S)-3-(4-Fluorophenyl)-3-hydroxypropyl]-4-(3′-hydroxybiphenyl-4-yl)-1-phenylazetidin-2-one]	73	–
O=C1[C@H](CC[C@H](O)c2ccc(F)cc2)[C@@H](c2ccc(-c3cccc(B(O)O)c3)cc2)N1c1ccccc1 [Example 59, (4′-{(2S,3R)-3-[(3S)-3-(4-Fluorophenyl)-3-hydroxypropyl]-4-oxo-1-phenylazetidin-2-yl}biphenyl-3-yl)boronic acid]	70	–
O=C1[C@H](CC[C@H](O)c2ccc(F)cc2)[C@@H](c2ccc(-c3cccc(P(=O)(O)O)c3)cc2O)N1c1ccccc1 [Example 61, (4′-{(2S,3R)-3-[(3S)-3-(4-Fluorophenyl)-3-hydroxypropyl]-4-oxo-1-phenylazetidin-2-yl}-3′-hydroxybiphenyl-3-yl)phosphonic Acid]	–	% inhibition at 5 mg/kg: 58^3%
